In US10836745B2, “Cocrystal, production method thereof, and medicament containing cocrystal” (Takeda Pharmaceutical Company Limited, priority 2015, dated 2020):
Converted amounts (≈) assume the structure as drawn. Read-outs that look alike come from different tables or passages of the source.

Experiments:
[1] = Measurement of dissolution rate (intrinsic dissolution test); type: physicochemical; conditions: 7 mm disc, 200 rpm, second fluid containing cholic acid, 37° C.
Method: According to the method described in “2.6. Intrinsic dissolution test” on page 231 of Tsutsumi S., Int. J. Pharm., 421 (2011) 230-236, the dissolution rate of the crystals and cocrystals of compound (A) was measured. To be specific, the crystals or cocrystals of compound (A) (20 mg) was pressurized by a hand press tableting machine at 20 MPa for 10 min to give a 7 mm diameter disc. The prepared disc was adhered to the inside of a rotating shaft of the United States Pharmacopeia dissolution test 1 (basket), and inserted, while rotating at 200 rpm, in the second fluid (250 mL) of the Japanese Pharmacopoeia disintegration test containing cholic acid heated to 37° C. The second fluid containing the crystals or cocrystals was collected by 0.5 mL at 1 min intervals, and analyzed by HPLC. From a chromatogram comparison with the standard solution (0.05 mg/mL), the concentration of the crystals or the cocrystals was calculated, and the dissolution rate thereof was calculated.

[2] = Measurement of solubility (shake-flask method); type: physicochemical; conditions: thermodynamic from solid, 37° C., shaken 2 hr
Method: According to the method described in “Thermodynamic Solubility Measurement by the Shake-Flask Method” on page 1229 of Nakashima S., Chem. Pharm. Bull., 61(12) 1228-1238 (2013), the solubility of the crystals and cocrystals of compound (A) was measured. To be specific, the first fluid (JP1), the second fluid (JP2) and the second fluid containing 20 mM sodium glycochenodeoxycholate (JP2/GCDC) of the Japanese Pharmacopoeia disintegration test were added at 400 μL each to the crystals or cocrystals (0.4 mg) of compound (A), and the mixture was heated to 37° C. under air atmosphere, and shaken by a vortex mixer for 2 hr at 500 rpm. After shaking, the mixture was passed through a 0.45 μm PVDF filter, and the filtrate was analyzed by HPLC. From a chromatogram comparison with the standard solution (0.1 mg/mL), the solubility of the crystals of the single compound and the cocrystals was calculated.

Method for physchem: The base pKa of the compound (A) and the acid pKa of the gentisic acid were measured using a Sirius T3 titrator manufactured by Sirius. The base pKa means an acid dissociation constant from the protonated state, and the acid pKa means the acid dissociation constant of the acid itself.

Compound | dissolution rate [1] [μg/mm^2/min] | solubility at 2 h ([2]; pH 1.2, simulated gastric fluid, first fluid (JP1) of Japanese Pharmacopoeia disintegration test, read-out: solubility JP1) [µg/mL] | solubility at 2 h ([2]; pH 6.8, aqueous buffer, second fluid (JP2) of Japanese Pharmacopoeia disintegration test, read-out: solubility JP2) [µg/mL] | solubility at 2 h ([2]; pH 6.8, fassgf or other biorelevant, second fluid containing 20 mM sodium glycochenodeoxycholate, read-out: solubility JP2/GCDC) [µg/mL] | pKa (physchem)
C=CC(=O)N1CC[C@H](Oc2nc(-c3n[nH]c(=O)[nH]3)cc3ccccc23)C1 [compound (A), (S)-3-(1-((1-acryloylpyrrolidin-3-yl)oxy)isoquinolin-3-yl)-1H-1,2,4-triazol-5(4H)-one] | 0.2 | 1.5 (≈ 4.27 µM) | 1.5 (≈ 4.27 µM) | 35.6 (≈ 101 µM) | –
O=C(O)c1cc(O)ccc1O [gentisic acid] | – | – | – | – | 3.23
